In patent US20250353864A1, “INDAZOLE CONTAINING MACROCYCLES AND THEIR USE” (BLOSSOMHILL THERAPEUTICS, INC., priority 2022, published 2025):

Experiments:
Format in all cases: biochemical
CLK2 = CLK2 (Homo sapiens (Human), UniProt P49760); experiment: Inhibition of CLK2 kinase activity evaluated at Nanosyn (ADP-Glo); details: ADP-Glo luminescence
Procedure: (§1) Inhibition of CLK, CLK2, CLK3 and CLK4 Kinase Activity Evaluated at Nanosyn
(§2) Kinase protein and substrate were pre-diluted in the HEPES assay buffer (100 mM HEPES, pH 7.5, 0.01% Triton X-100, 0.1% BSA, 5 mM MgCl2, […] DTT, 10 Sodium Orthovanadate, […] Beta-Glycerophosphate) dispensed into 384 well plate (5 μL per well). Control samples (0%-inhibition in the absence of inhibitor, DMSO only) and 100%-inhibition (in the absence of enzyme) were assembled in replicates of six and were used to calculate %-inhibition in the presence of compounds. Test compounds were added to the protein samples by acoustic dispensing (Labcyte Echo550). Concentration of DMSO was equalized to 1% in all samples. Reactions were initiated by addition of ATP by acoustic dispensing (Labcyte Echo550) and incubated according to assay specific incubation time. After incubation. 5 μL of Promega ADP-Glo reagent was added and incubated for 40 minutes. After 40 minutes, 10 uL of Promega kinase detection reagent was added. After 10 min of incubation with Kinase detection reagent, the luminescence was read on microplate reader (Biotek Synergy).

EGFR (D770_N771insNPG) = EGFR (D770_N771insNPG) (Homo sapiens (Human), UniProt P00533, INS770NPG); experiment: HotSpot radiometric kinase assay, EGFR (D770_N771insNPG); details: 10 μM ATP, read-out: EGFR (Δ770_N771insNPG) IC50
Procedure, shortened: (§3)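 Compounds were preincubated ~20 min with kinase/substrate in pH 7.5 Hepes buffer (MgCl2, EGTA, Brij35, BSA, Na3VO4, DTT, 1% DMSO), then ATP plus 33P-ATP was added to 10 μM final. After 120 min at room temperature, reactions were spotted on P81 filters and washed; IC50 values came from curve fits.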

EGFR L858R/T790M mutant = EGFR L858R/T790M mutant (Homo sapiens (Human), UniProt P00533, L858R/T790M); experiment: HotSpot radiometric kinase assay, EGFR L858R/T790M mutant; details: 10 μM ATP
Procedure, shortened: as §3

[1] = biological target: EGFR Δ746-750/C797S mutant (Homo sapiens (Human), UniProt P00533, C797S/DEL746-750); experiment: HotSpot radiometric kinase assay, EGFR Δ746-750/C797S mutant; details: 10 μM ATP
Procedure, shortened: as §3

CLK3 = CLK3 (Homo sapiens (Human), UniProt P49761); experiment: Inhibition of CLK3 kinase activity evaluated at Nanosyn (ADP-Glo); details: ADP-Glo luminescence
Procedure: as §1, §2

CLK1 = CLK1 (Homo sapiens (Human), UniProt P49759); experiment: Inhibition of CLK1 kinase activity evaluated at Nanosyn (ADP-Glo); details: ADP-Glo luminescence
Procedure: as §1, §2

EGFR WT = EGFR WT (Homo sapiens (Human), UniProt P00533); experiment: HotSpot radiometric kinase assay (Reaction Biology), EGFR WT; details: 10 μM ATP
Procedure, shortened: as §3

CLK4 = CLK4 (Homo sapiens (Human), UniProt Q9HAZ1); experiment: Inhibition of CLK4 kinase activity evaluated at Nanosyn (ADP-Glo); details: ADP-Glo luminescence
Procedure: as §1, §2

EGFR L858R mutant = EGFR L858R mutant (Homo sapiens (Human), UniProt P00533, L858R); experiment: HotSpot radiometric kinase assay, EGFR L858R mutant; details: 10 μM ATP
Procedure, shortened: as §3

EGFR Δ746-750 mutant = EGFR Δ746-750 mutant (Homo sapiens (Human), UniProt P00533, DEL746-750); experiment: HotSpot radiometric kinase assay, EGFR Δ746-750 mutant; details: 10 μM ATP
Procedure, shortened: as §3

[2] = biological target: EGFR L858R/T790M/C797S mutant (Homo sapiens (Human), UniProt P00533, C797S/L858R/T790M); experiment: HotSpot radiometric kinase assay, EGFR L858R/T790M/C797S mutant; details: 10 μM ATP
Procedure, shortened: as §3

Sequence of EGFR (D770_N771insNPG) (P00533 other isoform, or with tags, fused parts or gaps del 1-668/ins NPG behind 770 limits assumed): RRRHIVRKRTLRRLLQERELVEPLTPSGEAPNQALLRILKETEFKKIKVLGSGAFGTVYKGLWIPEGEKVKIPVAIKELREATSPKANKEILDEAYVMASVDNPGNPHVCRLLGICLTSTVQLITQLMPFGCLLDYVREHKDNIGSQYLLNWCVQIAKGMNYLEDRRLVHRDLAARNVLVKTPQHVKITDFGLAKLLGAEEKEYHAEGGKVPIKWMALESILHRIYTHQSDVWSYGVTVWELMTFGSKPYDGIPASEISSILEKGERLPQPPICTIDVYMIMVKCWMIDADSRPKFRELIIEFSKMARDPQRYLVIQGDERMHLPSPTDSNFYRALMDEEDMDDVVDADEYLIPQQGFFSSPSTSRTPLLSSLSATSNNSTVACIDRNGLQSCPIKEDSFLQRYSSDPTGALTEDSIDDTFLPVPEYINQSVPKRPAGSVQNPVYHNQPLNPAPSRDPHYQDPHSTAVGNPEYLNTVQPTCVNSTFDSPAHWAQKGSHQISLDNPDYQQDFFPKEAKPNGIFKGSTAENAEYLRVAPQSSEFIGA
Sequence of EGFR L858R mutant (P00533 25-1210 L858R): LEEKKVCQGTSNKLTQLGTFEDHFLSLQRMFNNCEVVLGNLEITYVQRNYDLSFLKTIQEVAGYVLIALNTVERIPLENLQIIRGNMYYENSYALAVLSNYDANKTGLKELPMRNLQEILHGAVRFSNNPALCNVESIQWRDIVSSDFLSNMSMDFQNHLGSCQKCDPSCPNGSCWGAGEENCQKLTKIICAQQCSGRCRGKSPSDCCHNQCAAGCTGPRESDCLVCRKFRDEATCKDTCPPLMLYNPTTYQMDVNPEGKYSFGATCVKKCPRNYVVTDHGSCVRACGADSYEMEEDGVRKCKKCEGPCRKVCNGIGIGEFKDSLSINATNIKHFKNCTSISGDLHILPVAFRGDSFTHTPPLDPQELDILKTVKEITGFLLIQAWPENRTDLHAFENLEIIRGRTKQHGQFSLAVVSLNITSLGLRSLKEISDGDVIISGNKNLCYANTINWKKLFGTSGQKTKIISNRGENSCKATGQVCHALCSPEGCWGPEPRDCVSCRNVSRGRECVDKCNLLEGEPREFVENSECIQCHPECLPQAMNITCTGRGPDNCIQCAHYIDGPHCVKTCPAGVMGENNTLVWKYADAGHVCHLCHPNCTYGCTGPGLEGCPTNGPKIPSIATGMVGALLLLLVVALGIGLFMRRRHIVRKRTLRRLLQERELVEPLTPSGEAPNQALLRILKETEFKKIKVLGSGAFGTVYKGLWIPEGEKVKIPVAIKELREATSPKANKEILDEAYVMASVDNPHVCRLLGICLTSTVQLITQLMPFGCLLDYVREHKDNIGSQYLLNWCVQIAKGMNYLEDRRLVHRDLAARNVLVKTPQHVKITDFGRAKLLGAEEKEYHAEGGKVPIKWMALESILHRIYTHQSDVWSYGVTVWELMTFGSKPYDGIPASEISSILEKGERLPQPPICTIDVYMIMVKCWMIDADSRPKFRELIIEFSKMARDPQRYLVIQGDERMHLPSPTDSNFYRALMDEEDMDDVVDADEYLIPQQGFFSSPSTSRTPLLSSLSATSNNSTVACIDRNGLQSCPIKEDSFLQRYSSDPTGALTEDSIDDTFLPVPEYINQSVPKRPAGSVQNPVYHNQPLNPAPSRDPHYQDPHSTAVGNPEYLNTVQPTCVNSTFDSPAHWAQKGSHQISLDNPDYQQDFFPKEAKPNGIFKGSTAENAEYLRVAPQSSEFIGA
Sequence of CLK2 (P49760 whole entry): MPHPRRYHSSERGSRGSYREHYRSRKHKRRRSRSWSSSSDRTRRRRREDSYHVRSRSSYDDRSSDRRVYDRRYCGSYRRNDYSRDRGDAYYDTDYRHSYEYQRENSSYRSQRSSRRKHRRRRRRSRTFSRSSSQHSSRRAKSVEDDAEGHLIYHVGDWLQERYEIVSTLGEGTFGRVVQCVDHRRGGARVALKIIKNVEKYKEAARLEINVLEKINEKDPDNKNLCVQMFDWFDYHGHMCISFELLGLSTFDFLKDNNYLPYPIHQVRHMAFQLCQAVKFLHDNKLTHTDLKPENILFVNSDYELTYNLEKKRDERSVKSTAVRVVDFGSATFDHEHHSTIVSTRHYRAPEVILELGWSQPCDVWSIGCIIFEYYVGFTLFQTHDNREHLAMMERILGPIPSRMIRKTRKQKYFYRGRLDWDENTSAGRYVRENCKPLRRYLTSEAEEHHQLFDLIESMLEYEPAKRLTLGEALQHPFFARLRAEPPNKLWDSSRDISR
Sequence of EGFR L858R/T790M/C797S mutant (P00533 25-1210 T790M/C797S/L858R): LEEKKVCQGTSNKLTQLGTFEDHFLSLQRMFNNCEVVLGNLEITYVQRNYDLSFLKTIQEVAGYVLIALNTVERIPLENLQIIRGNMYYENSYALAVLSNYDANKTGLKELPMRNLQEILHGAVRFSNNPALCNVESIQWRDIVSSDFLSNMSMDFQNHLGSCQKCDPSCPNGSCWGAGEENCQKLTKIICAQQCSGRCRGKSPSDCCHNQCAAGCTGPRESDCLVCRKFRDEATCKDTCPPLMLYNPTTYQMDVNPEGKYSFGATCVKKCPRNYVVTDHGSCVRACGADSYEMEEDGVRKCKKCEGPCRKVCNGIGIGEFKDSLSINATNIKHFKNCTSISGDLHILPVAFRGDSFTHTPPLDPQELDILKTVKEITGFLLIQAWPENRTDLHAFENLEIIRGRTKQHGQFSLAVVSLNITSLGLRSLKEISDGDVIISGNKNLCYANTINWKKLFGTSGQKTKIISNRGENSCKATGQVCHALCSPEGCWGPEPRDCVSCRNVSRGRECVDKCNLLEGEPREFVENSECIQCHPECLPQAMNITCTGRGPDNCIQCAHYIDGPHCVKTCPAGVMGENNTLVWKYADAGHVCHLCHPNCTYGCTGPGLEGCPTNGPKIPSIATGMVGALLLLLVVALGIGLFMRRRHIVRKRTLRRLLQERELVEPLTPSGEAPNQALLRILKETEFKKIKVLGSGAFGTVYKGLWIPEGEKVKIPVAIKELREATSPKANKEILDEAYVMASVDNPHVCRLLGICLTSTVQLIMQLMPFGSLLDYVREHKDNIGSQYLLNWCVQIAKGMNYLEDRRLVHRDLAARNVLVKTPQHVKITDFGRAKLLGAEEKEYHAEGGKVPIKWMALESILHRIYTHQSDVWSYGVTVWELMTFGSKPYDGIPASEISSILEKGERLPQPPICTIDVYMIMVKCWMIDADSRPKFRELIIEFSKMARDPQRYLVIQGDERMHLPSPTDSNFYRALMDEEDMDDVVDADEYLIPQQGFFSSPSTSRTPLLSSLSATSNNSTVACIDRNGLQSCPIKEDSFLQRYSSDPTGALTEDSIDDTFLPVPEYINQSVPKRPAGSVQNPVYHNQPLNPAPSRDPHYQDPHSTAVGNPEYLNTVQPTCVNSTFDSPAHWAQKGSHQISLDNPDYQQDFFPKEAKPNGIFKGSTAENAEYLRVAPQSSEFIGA
Sequence of CLK4 (Q9HAZ1 whole entry): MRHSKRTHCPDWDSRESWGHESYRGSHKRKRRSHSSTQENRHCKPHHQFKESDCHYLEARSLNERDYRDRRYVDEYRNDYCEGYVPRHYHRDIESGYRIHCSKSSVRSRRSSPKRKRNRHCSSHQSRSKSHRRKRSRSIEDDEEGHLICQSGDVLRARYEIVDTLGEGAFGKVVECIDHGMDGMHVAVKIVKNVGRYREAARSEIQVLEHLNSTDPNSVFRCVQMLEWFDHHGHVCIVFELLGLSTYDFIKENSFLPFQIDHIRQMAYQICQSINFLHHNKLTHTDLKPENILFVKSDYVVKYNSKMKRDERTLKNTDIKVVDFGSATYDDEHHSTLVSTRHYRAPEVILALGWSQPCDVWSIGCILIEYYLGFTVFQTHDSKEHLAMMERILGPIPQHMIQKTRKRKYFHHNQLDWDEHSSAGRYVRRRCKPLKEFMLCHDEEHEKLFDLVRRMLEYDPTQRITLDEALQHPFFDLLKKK
Sequence of EGFR Δ746-750 mutant (P00533 other isoform, or with tags, fused parts or gaps del 1-668/del 746-750 limits assumed): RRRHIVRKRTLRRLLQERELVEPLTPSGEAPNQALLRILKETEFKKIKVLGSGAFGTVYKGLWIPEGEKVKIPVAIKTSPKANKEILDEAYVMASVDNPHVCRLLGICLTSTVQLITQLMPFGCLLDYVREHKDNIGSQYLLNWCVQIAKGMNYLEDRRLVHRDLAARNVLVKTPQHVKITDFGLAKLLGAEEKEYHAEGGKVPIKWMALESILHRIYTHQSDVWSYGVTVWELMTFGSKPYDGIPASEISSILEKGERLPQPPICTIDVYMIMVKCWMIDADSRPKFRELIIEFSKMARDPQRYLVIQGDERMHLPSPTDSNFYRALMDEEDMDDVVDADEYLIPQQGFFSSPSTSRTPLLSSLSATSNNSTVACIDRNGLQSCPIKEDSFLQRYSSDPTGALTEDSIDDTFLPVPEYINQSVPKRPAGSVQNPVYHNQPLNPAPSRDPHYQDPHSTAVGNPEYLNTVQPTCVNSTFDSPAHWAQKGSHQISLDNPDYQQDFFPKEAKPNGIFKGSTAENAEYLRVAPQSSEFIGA
Sequence of EGFR Δ746-750/C797S mutant (P00533 other isoform, or with tags, fused parts or gaps C797S/del 1-668/del 746-750 limits assumed): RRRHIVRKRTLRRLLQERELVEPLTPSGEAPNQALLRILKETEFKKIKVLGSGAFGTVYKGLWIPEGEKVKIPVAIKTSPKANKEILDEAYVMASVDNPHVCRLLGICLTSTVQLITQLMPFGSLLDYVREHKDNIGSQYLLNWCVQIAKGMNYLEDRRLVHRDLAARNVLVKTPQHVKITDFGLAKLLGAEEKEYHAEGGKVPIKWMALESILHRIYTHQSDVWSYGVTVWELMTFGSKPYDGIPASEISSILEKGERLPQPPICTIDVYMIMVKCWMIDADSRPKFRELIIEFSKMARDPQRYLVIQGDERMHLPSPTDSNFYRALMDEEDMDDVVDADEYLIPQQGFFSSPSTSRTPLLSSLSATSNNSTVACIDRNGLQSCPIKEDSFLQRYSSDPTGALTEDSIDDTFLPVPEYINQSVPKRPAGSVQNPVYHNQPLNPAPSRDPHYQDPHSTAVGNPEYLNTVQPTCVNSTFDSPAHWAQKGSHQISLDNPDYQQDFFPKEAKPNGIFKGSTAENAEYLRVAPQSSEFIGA

Structure (SMILES) | IC50 (CLK2) [nM] | IC50 (EGFR (D770_N771insNPG)) [nM] | IC50 (EGFR L858R/T790M mutant) [nM] | IC50 [1] [nM] | IC50 (CLK3) [nM] | IC50 (CLK1) [nM] | IC50 (EGFR WT) [nM] | IC50 (CLK4) [nM] | IC50 (EGFR L858R mutant) [nM] | IC50 (EGFR Δ746-750 mutant) [nM] | IC50 [2] [nM]
CC(C)Oc1nn(CCO)c2c1/C=C/c1n[nH]c3ccc(cc13)-c1cnn(C)c1O[C@@H](C#N)CN(C)C2 [Example 264, (10R,17E)-14-(2-hydroxyethyl)-8,12-dimethyl-16-[(propan-2-yl)oxy]-2,10,11,12,13,14-hexahydro-8H-3,5-ethenotripyrazolo[3,4-f:3′,4′-j:4″,3″-n][1,4]oxazacyclopentadecine-10-carbonitrile] | 3.08 | 826 | 18 | 70 | 519 | 1.06 | 815 | 1.59 | 491 | 162 | 8.63
C#Cc1nn(C)c2c1-c1ccc3[nH]nc(c3c1)/C=C/c1c(OCC)nn(CCO)c1CN(C)C[C@H](C)O2 [Example 292, 2-[(10S,17E)-16-ethoxy-6-ethynyl-8,10,12-trimethyl-2,8,10,11,12,13-hexahydro-14H-3,5-ethenotripyrazolo[3,4-f:3′,4′-j:4″,3″-n][1,4]oxazacyclopentadecin-14-yl]ethan-1-ol] | 4.87 |  |  |  | 1000 | 1.01 |  | 1.36 |  |  | 
CCNc1nn(CCO)c2c1/C=C/c1n[nH]c3ccc(cc13)-c1cnn(C)c1O[C@@H](C)CN(C)C2 [Example 295, 2-[(10S,17E)-16-(ethylamino)-8,10,12-trimethyl-2,8,10,11,12,13-hexahydro-14H-3,5-ethenotripyrazolo[3,4-f:3′,4′-j:4″,3″-n][1,4]oxazacyclopentadecin-14-yl]ethan-1-ol] | 0.78 |  |  |  | 13.8 | 0.64 |  | 1.12 |  |  | 
Cc1noc2c1/C=C/c1n[nH]c3ccc(cc13)-c1cnn(C)c1O[C@@H](C)CN(C)C2 [Example 141, (10S,17E)-8,10,12,16-tetramethyl-2,8,10,11,12,13-hexahydro-3,5-etheno[1,2]oxazolo[5,4-f]dipyrazolo[3,4-j:4′,3′-n][1,4]oxazacyclopentadecine] | 0.03 |  |  |  | 41.9 | 0.11 |  | 0.13 |  |  | 
Cc1snc2c1/C=C/c1n[nH]c3ccc(cc13)-c1cnn(C)c1O[C@@H](C)CN(C)C2 [Example 158, (10S,17E)-8,10,12,16-tetramethyl-2,8,10,11,12,13-hexahydro-3,5-ethenodipyrazolo[3,4-j:4′,3′-n][1,2]thiazolo[3,4-f][1,4]oxazacyclopentadecine] | 0.4 |  |  |  | 664 | 0.14 |  | 0.31 |  |  | 
Cc1nn(C)c2c1/C=C/c1n[nH]c3ccc(cc13)-c1cnn(C)c1COCCO2 [Ex. 6, (17E)-8,14,16-trimethyl-2,8,9,11,12,14-hexahydro-3,5-etheno[1,4]dioxacyclopentadecino[11,10-c:15,14-c′:6,7-c″ ]tripyrazole] | 0.23 |  |  |  | 178 | 0.34 |  | 0.52 |  |  | 
CCN1Cc2c(c(OC(C)C)nn2C[C@H](C)O)/C=C/c2n[nH]c3cc(F)c(cc23)-c2cnn(C)c2O[C@@H](C)C1 [Example 296, (2S)-1-{(10S,17E)-12-ethyl-19-fluoro-8,10-dimethyl-16-[(propan-2-yl)oxy]-2,8,10,11,12,13-hexahydro-14H-3,5-ethenotripyrazolo[3,4-f:3′,4′-j:4″,3″-n][1,4]oxazacyclopentadecin-14-yl}propan-2-ol] | 1.15 |  |  |  | 33.4 | 1.2 |  | 1.57 |  |  | 
Cc1c2c(nn1C)OCCOCc1c(cnn1C)-c1ccc3[nH]nc(c3c1)/C=C/2 [Ex. 7, (17E)-8,15,16-trimethyl-2,8,9,11,12,15-hexahydro-3,5-etheno[1,4]dioxacyclopentadecino[11,10-c:15,14-c′:6,7-c″]tripyrazole] | 0.08 | 2120 |  |  | 45.2 | 0.2 | > 1000 | 0.48 | 687 | 898 | 202
CC(C)Oc1nn(CCO)c2c1/C=C/c1n[nH]c3ccc(cc13)-c1cnn(C)c1O[C@@H](C)CN(C)[C@H]2C [Example 224, 2-{(10S,13S,17E)-8,10,12,13-tetramethyl-16-[(propan-2-yl)oxy]-2,8,10,11,12,13-hexahydro-14H-3,5-ethenotripyrazolo[3,4-f:3′,4′-j:4″,3″-n][1,4]oxazacyclopentadecin-14-yl}ethan-1-ol] | 1.16 |  |  |  | 253 | 0.69 |  | 1.46 |  |  | 
CCOc1c2c(nn1C)CN(C(C)=O)CCOc1c(cnn1C)-c1ccc3[nH]nc(c3c1)/C=C/2 [Example 294, 1-[(17E)-16-ethoxy-8,15-dimethyl-2,8,10,11,13,15-hexahydro-12H-3,5-ethenotripyrazolo[3,4-f:3′,4′-j:4″,3″- n][1,4]oxazacyclopentadecin-12-yl]ethan-1-one] | 3.25 |  |  |  | 1000 | 1.27 |  | 1.37 |  |  | 
CCOc1nn(CCO)c2c1/C=C/c1n[nH]c3ccc(cc13)-c1c(C#N)nn(C)c1O[C@@H](C)CN(CC)C2 [Example 290, (10S,17E)-16-ethoxy-12-ethyl-14-(2-hydroxyethyl)-8,10-dimethyl-2,10,11,12,13,14-hexahydro-8H-3,5-ethenotripyrazolo[3,4-f:3′,4′-j:4″,3″-n][1,4]oxazacyclopentadecine-6-carbonitrile] | 102 |  |  |  | 1000 | 69.4 |  | 38.1 |  |  | 
Cc1nn(C)c2c1/C=C/c1n[nH]c3ccc(cc13)-c1cnn(C)c1CN(C)CCO2 [Example 55, (17E)-8,10,14,16-tetramethyl-2,9,10,11,12,14-hexahydro-8H-3,5-ethenotripyrazolo[3,4-f:4′,3′-j:4″,3″- n][1,4]oxazacyclopentadecine] | 0.13 | 78.3 |  | 8.93 | 185 | 0.09 | 101 | 0.58 | 35.2 | 33.4 | 4.1
C[C@H]1CN(C)Cc2c(c(C#N)nn2CCO)/C=C/c2n[nH]c3ccc(cc23)-c2cnn(C)c2O1 [Example 208, (10S,17E)-14-(2-hydroxyethyl)-8,10,12-trimethyl-2,10,11,12,13,14-hexahydro-8H-3,5-ethenotripyrazolo[3,4-f:3′,4′-j:4″,3″-n][1,4]oxazacyclopentadecine-16-carbonitrile] | 0.13 |  |  |  | 220 | 0.59 |  | 1.53 |  |  | 
Cc1nn(C)c2c1/C=C/c1n[nH]c3ccc(cc13)-c1cnn(C)c1O[C@@H](C)CN(C)[C@H]2C (single isomer, unassigned) [Example 145] | 0.04 |  |  |  | 99.6 | 0.21 |  | 0.52 |  |  | 
CC(=O)N1CCOc2c(cnn2C)-c2ccc3[nH]nc(c3c2)/C=C/c2c(nn(C)c2C)C1 [Example 52, 1-[(17E)-8,15,16-trimethyl-2,8,10,11,13,15-hexahydro-12H-3,5-ethenotripyrazolo[3,4-f:3′,4′-j:4″,3″- n][1,4]oxazacyclopentadecin-12-yl]ethan-1-one] | 0.19 |  |  |  | 148 | 0.24 |  | 0.56 |  |  | 
CCc1nn(CCO)c2c1/C=C/c1n[nH]c3ccc(cc13)-c1cnn(C)c1OCCCO2 [Ex. 23, 2-[(17E)-16-ethyl-8-methyl-2,8,11,12-tetrahydro-10H,14H-3,5-etheno[1,5]dioxacyclopentadecino[10,11-c:15,14-c′:6,7-c″]tripyrazol-14-yl]ethan-1-ol] |  | 362 | 13.1 | 44.5 |  |  | 290 |  | 96.6 | 29.3 | 22.5
